In patent publication US9643999B2 (Bristol-Myers Squibb Company, priority 2012, dated 2017) one finds EC50 data, which are given here for eleven compounds.

One assay has as its system HCV genotype 1b replicon. The experiment in a line: HCV replicon luciferase reporter assay, genotype 1b (LE_1b). It is filed as cell-based. The settings on record: Hepatitis C virus, 72 h, HUH-7 cells, genotype 1b (Con1) replicon, 3 days incubation, Renilla luciferase. Put shortly: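 HUH-7 cells stably carrying Renilla luciferase replicons (1b Con1 with S1179I; 1a H77 with P1496L and S2204I), 3.0×10^3 cells/well in 4% FCS, 0.5% DMSO, twenty-point 3-fold titration. After 3 days at 37° C., luminescence read with EnduRen (7.5 μM final, 2 hrs). EC50 from four-parameter logistic fit; CC50 from multiplexed Cell Titer-Blue (8 hrs).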

A further assay deals with HCV genotype 1a replicon. The experiment in a line: HCV replicon luciferase reporter assay, genotype 1a (LE_1a). It is filed as cell-based. The settings on record: Hepatitis C virus, 72 h, HUH-7 cells, genotype 1a H77 replicon, 3 days incubation, Renilla luciferase.

Molecules are shown by their SMILES. Read-outs that look alike come from different tables or passages of the source.

With `CC[C@@H]1C[C@H](C)CC/C=C\[C@@H]2C[C@@]2(C(=O)NS(=O)(=O)C2CC2)NC(=O)[C@@H]2C[C@@H](Oc3nc4ncccc4nc3C(F)(F)F)CN2C(=O)[C@H]1NC(=O)OC(C)(C)C` [Compound 4330, tert-butyl((2R,6S,7R,9R,13aS,14aR,16aS,Z)-14a-((cyclopropylsulfonyl)carbamoyl)-7-ethyl-9-methyl-5,16-dioxo-2-((2-(trifluoromethyl)pyrido[2,3-b]pyrazin-3-yl)oxy)-1,2,3,5,6,7,8,9,10,11,13a,14,14a,15,16,16a-hexadecahydrocyclopropa[e]pyrrolo[1,2-a][1,4]diazacyclopentadecin-6-yl)carbamate], the EC50 was in the range of 5.01 to 35 nM in the assay with HCV genotype 1b replicon (read-out: LE_1b (EC50, range)) and 5.01 to 35 nM in the assay with HCV genotype 1a replicon (read-out: LE_1a (EC50, range)).
As to `C[C@@H]1CC/C=C\[C@@H]2C[C@@]2(C(=O)NS(=O)(=O)C2(C)CC2)NC(=O)[C@@H]2C[C@@H](Oc3nc4nncn4c4ccccc34)CN2C(=O)[C@@H](NC(=O)OC(C)(C)C)[C@H](C)C1` [Compound 6120, tert-butyl((2R,6S,7R,9R,13aS,14aR,16aS,Z)-2-([1,2,4]triazolo[4,3-a]quinazolin-5-yloxy)-7,9-dimethyl-14a-(((1-methylcyclopropyl)sulfonyl)carbamoyl)-5,16-dioxo-1,2,3,5,6,7,8,9,10,11,13a,14,14a,15,16,16a-hexadecahydrocyclopropa[e]pyrrolo[1,2-a][1,4]diazacyclopentadecin-6-yl)carbamate], the EC50 in the assay on HCV genotype 1b replicon (read-out: LE_1b (EC50, range)) lay within 35 to 145 nM; with HCV genotype 1a replicon (read-out: LE_1a (EC50, range)), 35 to 145 nM.
`CC[C@@H]1C[C@H](C)CC/C=C\[C@@H]2C[C@@]2(C(=O)NS(=O)(=O)C2(C)CC2)NC(=O)[C@@H]2C[C@@H](Oc3ncc(N(C)C(=O)c4ccccc4)c4cc(OC)ccc34)CN2C(=O)[C@H]1NC(=O)OC(C)(C)C(F)(F)F` [Compound 4248]: the EC50 in the assay with HCV genotype 1b replicon (read-out: LE_1b (EC50, range)) was 1.01 to 5 nM; in the assay on HCV genotype 1a replicon (read-out: LE_1a (EC50, range)), 1.01 to 5 nM.
`Cc1cn2c(n1)nc(O[C@@H]1C[C@H]3C(=O)N[C@]4(C(=O)NS(=O)(=O)C5(C)CC5)C[C@H]4/C=C\CC[C@@H](C)C[C@@H](C)[C@H](NC(=O)OC(C)(C)C(F)(F)F)C(=O)N3C1)c1cc(Cl)ccc12` [Compound 6135]: the EC50 was 0.51 to 1 nM with HCV genotype 1b replicon (read-out: LE_1b (EC50, range)) and 1.01 to 5 nM in the assay on HCV genotype 1a replicon (read-out: LE_1a (EC50, range)).
In the case of `CC[C@@H]1C[C@H](C)CC/C=C\[C@@H]2C[C@@]2(C(=O)NS(=O)(=O)C2(C)CC2)NC(=O)[C@@H]2C[C@@H](Oc3cc(-n4ccc(C(C)C)n4)nc4cc(OC)ccc34)CN2C(=O)[C@H]1NC(=O)OC(C)(C)C` [Compound 4294], the EC50 with HCV genotype 1b replicon (read-out: LE_1b (EC50)) is 0.89 nM; in the assay with HCV genotype 1b replicon (read-out: LE_1b (EC50, range)), 0.51 to 1 nM; with HCV genotype 1a replicon (read-out: LE_1a (EC50)), 0.85 nM; in the assay with HCV genotype 1a replicon (read-out: LE_1a (EC50, range)), 0.51 to 1 nM.
As for `[2H]C([2H])([2H])C1(S(=O)(=O)NC(=O)[C@@]23C[C@H]2/C=C\CC[C@@H](C)C[C@@H](CC)[C@H](NC(=O)OC(C)(C)C)C(=O)N2C[C@H](Oc4nccc5cc(OCC)c(F)cc45)C[C@H]2C(=O)N3)CC1` [Compound 5509], the EC50 in the assay on HCV genotype 1b replicon (read-out: LE_1b (EC50, range)) fell in the range of 0.51 to 1 nM; in the assay with HCV genotype 1a replicon (read-out: LE_1a (EC50, range)), 1.01 to 5 nM.
With `CC[C@@H]1C[C@H](C)CC/C=C\[C@@H]2C[C@@]2(C(=O)NS(=O)(=O)C2(C)CC2)NC(=O)[C@@H]2C[C@@H](Oc3nccc4c5c(ccc34)CCO5)CN2C(=O)[C@H]1NC(=O)OC(C)(C)C(F)(F)F` [Compound 5500], the half-maximal effective concentration (EC50) was 5.01 to 35 nM with HCV genotype 1b replicon (read-out: LE_1b (EC50, range)) and 5.01 to 35 nM in the assay on HCV genotype 1a replicon (read-out: LE_1a (EC50, range)).
Take `[2H]C([2H])([2H])C1(S(=O)(=O)NC(=O)[C@@]23C[C@H]2/C=C\CC[C@@H](C)C[C@@H](CC)[C@H](NC(=O)OC(C)(C)C)C(=O)N2C[C@H](Oc4nccc5cc(OC)c(F)cc45)C[C@H]2C(=O)N3)CC1` [Compound 5507]: the EC50 with HCV genotype 1b replicon (read-out: LE_1b (EC50, range)) lay in the range of 0.51 to 1 nM; with HCV genotype 1a replicon (read-out: LE_1a (EC50, range)), 1.01 to 5 nM.
As for `[2H]C([2H])([2H])C1(S(=O)(=O)NC(=O)[C@@]23C[C@H]2/C=C\CC[C@@H](C)C[C@@H](CC)[C@H](NC(=O)OC(C)(C)C(C)(F)F)C(=O)N2C[C@H](Oc4nccc5cc(OCC)c(F)cc45)C[C@H]2C(=O)N3)CC1` [Compound 5519], the concentration for a half-maximal effect (EC50) lay in the range of 0.51 to 1 nM in the assay on HCV genotype 1b replicon (read-out: LE_1b (EC50, range)) and 1.01 to 5 nM in the assay on HCV genotype 1a replicon (read-out: LE_1a (EC50, range)).
As to `CC[C@@H]1C[C@H](C)CC/C=C\[C@@H]2C[C@@]2(C(=O)NS(=O)(=O)C2CC2)NC(=O)[C@@H]2C[C@@H](Oc3nc4ccc(OC)cc4nc3C3CC3)CN2C(=O)[C@H]1NC(=O)OC(C)(C)C(F)(F)F` [Compound 4308], the EC50 was 5.01 to 35 nM in the assay with HCV genotype 1b replicon (read-out: LE_1b (EC50, range)) and 5.01 to 35 nM in the assay with HCV genotype 1a replicon (read-out: LE_1a (EC50, range)).
As for `CC[C@@H]1C[C@H](C)CC/C=C\[C@@H]2C[C@@]2(C(=O)NS(=O)(=O)C2CC2)NC(=O)[C@@H]2C[C@@H](Oc3nc4ccc(OC)cc4nc3C3CC3)CN2C(=O)[C@H]1NC(=O)OC(C)(C)C` [Compound 4306], the EC50 in the assay on HCV genotype 1b replicon (read-out: LE_1b (EC50, range)) is 5.01 to 35 nM; in the assay with HCV genotype 1a replicon (read-out: LE_1a (EC50, range)), 5.01 to 35 nM.
